Assay results published in US10538498B2, “1,3,4-oxadiazole sulfonamide derivative compounds as histone deacetylase 6 inhibitor, and the pharmaceutical composition comprising the same” (Chong Kun Dang Pharmaceutical Corp., priority 2015, dated 2020).
pIC50: −log10 of the molar value.

Biological target: T1, human recombinant HDAC6 (Homo sapiens, UniProt Q9UBN7)
T1 construct: purchased Calbiochem 382180
T1 sequence (Q9UBN7 1-1215): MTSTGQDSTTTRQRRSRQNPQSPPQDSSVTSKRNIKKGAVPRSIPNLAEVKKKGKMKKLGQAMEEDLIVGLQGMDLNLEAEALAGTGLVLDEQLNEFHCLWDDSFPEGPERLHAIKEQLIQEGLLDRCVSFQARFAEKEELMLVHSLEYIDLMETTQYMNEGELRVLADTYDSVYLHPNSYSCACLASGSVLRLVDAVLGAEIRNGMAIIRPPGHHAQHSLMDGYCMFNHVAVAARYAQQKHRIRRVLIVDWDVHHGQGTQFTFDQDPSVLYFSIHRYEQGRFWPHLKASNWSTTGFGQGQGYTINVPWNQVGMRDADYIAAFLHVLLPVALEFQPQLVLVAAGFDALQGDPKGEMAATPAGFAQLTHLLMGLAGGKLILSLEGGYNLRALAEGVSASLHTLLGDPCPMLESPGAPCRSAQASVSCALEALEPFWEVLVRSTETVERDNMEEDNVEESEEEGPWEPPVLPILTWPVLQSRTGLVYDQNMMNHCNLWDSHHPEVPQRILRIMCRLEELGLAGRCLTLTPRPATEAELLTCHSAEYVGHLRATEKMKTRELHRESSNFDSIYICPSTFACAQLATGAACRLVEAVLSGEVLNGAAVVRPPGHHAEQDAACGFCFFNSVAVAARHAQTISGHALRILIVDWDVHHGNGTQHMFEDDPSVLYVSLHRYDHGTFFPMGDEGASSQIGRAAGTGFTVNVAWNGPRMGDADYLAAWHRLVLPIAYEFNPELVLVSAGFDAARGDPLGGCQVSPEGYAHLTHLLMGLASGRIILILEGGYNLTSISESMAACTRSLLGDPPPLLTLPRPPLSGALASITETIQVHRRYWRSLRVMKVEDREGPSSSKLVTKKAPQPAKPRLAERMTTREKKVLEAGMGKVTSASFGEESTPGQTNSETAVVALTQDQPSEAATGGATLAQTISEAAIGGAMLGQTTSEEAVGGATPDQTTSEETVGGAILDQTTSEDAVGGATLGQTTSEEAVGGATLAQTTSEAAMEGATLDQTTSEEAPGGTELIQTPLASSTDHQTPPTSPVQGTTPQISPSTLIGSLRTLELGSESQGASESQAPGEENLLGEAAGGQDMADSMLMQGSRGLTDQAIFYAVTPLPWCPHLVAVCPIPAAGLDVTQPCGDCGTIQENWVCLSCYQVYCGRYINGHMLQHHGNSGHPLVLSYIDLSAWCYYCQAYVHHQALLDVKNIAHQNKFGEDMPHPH
Assay: HDAC6 enzyme activity inhibition assay (HDAC Fluorimetric Drug Discovery Kit)
Type: biochemical
Conditions: for HDAC6 selectivity (fold): HDAC1 vs HDAC6; for pIC50: same protocol as the HDAC1 enzyme activity test
Description: In order to examine the HDAC6 selectivity of the compounds of formula I of the present invention by HDAC1 and HDAC6 enzymatic activity inhibition assays, an experiment was performed using a conventional substance as a control.
HDAC enzyme activity was measured using a HDAC Fluorimetric Drug Discovery Kit (BML-AK511, 516, Enzo Life Science). For the HDAC1 enzyme activity test, human recombinant HDAC1 (BML-SE456) was used as an enzyme source, and Fluor de Lys®-“SIRT1 (BNL-KI177) was used as a substrate. A 5-fold dilution of the compound was seeded into a 96-well plate, and then 0.3 μg of the enzyme and 10 μM of the substrate were added to each well of the plate and allowed to react at 30° C. for 60 minutes. Then, Fluor de Lys®-Developer II (BML-KI176) was added thereto and allowed to react for 30 minutes, after which the fluorescence value (Ex 360, Em 460) was measured using a multi-plate reader (Flexstation 3, Molecular Device). The HDAC6 enzyme was tested using human recombinant HDAC6 (382180) (Calbiochem) according to the same protocol as the HDAC1 enzyme activity test method. Based on the resulting values, each IC50 value was calculated using GraphPad Prism4.0 program.

Structure (SMILES) | HDAC6 selectivity (fold) | pIC50
O=S(=O)(c1cccnc1)N(Cc1ccc(-c2nnc(C(F)(F)F)o2)cc1F)c1cccc(C(F)(F)F)n1 [Compound 11253, N-(2-fluoro-4-(5-(trifluoromethyl)-1,3,4-oxadiazol-2-yl)benzyl)-N-(6-(trifluoromethyl)pyridin-2-yl)pyridine-3-sulfonamide] | 150 fold | 6.18
CC(=O)c1cccc(N(Cc2ccc(-c3nnc(C(F)F)o3)cc2F)S(C)(=O)=O)c1 [Compound 11254, N-(3-acetylphenyl)-N-(4-(5-(difluoromethyl)-1,3,4-oxadiazol-2-yl)-2-fluorobenzyl)methanesulfonamide] | 3448 fold | 7.54
O=S1(=O)CCC(S(=O)(=O)N(Cc2ccc(-c3nnc(C(F)(F)F)o3)cc2F)c2cccc(F)c2)CC1 [Compound 11255, N-(2-fluoro-4-(5-(trifluoromethyl)-1,3,4-oxadiazol-2-yl)benzyl)-N-(3-fluorophenyl)tetrahydro-2H-thiopyran-4-sulfonamide 1,1-dioxide] | 2128 fold | 7.33
O=S1(=O)CCC(S(=O)(=O)N(Cc2ccc(-c3nnc(C(F)F)o3)cc2F)c2cccc(F)c2)CC1 [Compound 11256, N-(4-(5-(difluoromethyl)-1,3,4-oxadiazol-2-yl)-2-fluorobenzyl)-N-(3-fluorophenyl)tetrahydro-2H-thiopyran-4-sulfonamide 1,1-dioxide] | 7692 fold | 7.89
CS(=O)(=O)N(Cc1ccc(-c2nnc(C(F)(F)F)o2)cc1F)c1ccc(Cl)cc1 [Compound 11271, N-(4-chlorophenyl)-N-(2-fluoro-4-(5-(trifluoromethyl)-1,3,4-oxadiazol-2-yl)benzyl)methanesulfonamide] | 775 fold | 6.89
CS(=O)(=O)N(Cc1ccc(-c2nnc(C(F)(F)F)o2)cc1F)c1cncc(F)c1 [Compound 11272, N-(2-fluoro-4-(5-(trifluoromethyl)-1,3,4-oxadiazol-2-yl)benzyl)-N-(5-fluoropyridin-3-yl)methanesulfonamide] | 1961 fold | 7.29
CS(=O)(=O)N(Cc1ccc(-c2nnc(C(F)(F)F)o2)cc1F)c1ccccc1F [Compound 11273, N-(2-fluoro-4-(5-(trifluoromethyl)-1,3,4-oxadiazol-2-yl)benzyl)-N-(2-fluorophenyl)methanesulfonamide] | 1266 fold | 7.10
CS(=O)(=O)N(Cc1ccc(-c2nnc(C(F)F)o2)cc1F)c1ccccc1F [Compound 11274] | 2439 fold | 7.39
CS(=O)(=O)N(Cc1ccc(-c2nnc(C(F)(F)F)o2)cc1F)c1ccc(F)cc1 [Compound 11275, N-(2-fluoro-4-(5-(trifluoromethyl)-1,3,4-oxadiazol-2-yl)benzyl)-N-(4-fluorophenyl)methanesulfonamide] | 1370 fold | 7.14
CS(=O)(=O)N(Cc1ccc(-c2nnc(C(F)F)o2)cc1F)c1ccc(F)cc1 [Compound 11276, N-(4-(5-(difluoromethyl)-1,3,4-oxadiazol-2-yl)-2-fluorobenzyl)-N-(4-fluorophenyl)methanesulfonamide] | 4000 fold | 7.60
CS(=O)(=O)N(Cc1ccc(-c2nnc(C(F)(F)F)o2)cc1F)c1ccc(Br)cc1 [Compound 11277, N-(4-bromophenyl)-N-(2-fluoro-4-(5-(trifluoromethyl)-1,3,4-oxadiazol-2-yl)benzyl)methanesulfonamide] | 535 fold | 6.73
CS(=O)(=O)N(Cc1ccc(-c2nnc(C(F)F)o2)cc1F)c1ccc(Br)cc1 [Compound 11278, N-(4-bromophenyl)-N-(4-(5-(difluoromethyl)-1,3,4-oxadiazol-2-yl)-2-fluorobenzyl)methanesulfonamide] | 1923 fold | 7.28
CS(=O)(=O)N(Cc1ccc(-c2nnc(C(F)(F)F)o2)cc1F)c1ccccc1Cl [Compound 11279, N-(2-chlorophenyl)-N-(2-fluoro-4-(5-(trifluoromethyl)-1,3,4-oxadiazol-2-yl)benzyl)methanesulfonamide] | 901 fold | 6.95
CS(=O)(=O)N(Cc1ccc(-c2nnc(C(F)F)o2)cc1F)c1ccccc1Cl [Compound 11280, N-(2-chlorophenyl)-N-(4-(5-(difluoromethyl)-1,3,4-oxadiazol-2-yl)-2-fluorobenzyl)methanesulfonamide] | 1266 fold | 7.10
CS(=O)(=O)N(Cc1ccc(-c2nnc(C(F)F)o2)cc1F)c1ccc(Cl)cc1 [Compound 11281, N-(4-chlorophenyl)-N-(4-(5-(difluoromethyl)-1,3,4-oxadiazol-2-yl)-2-fluorobenzyl)methanesulfonamide] | 2273 fold | 7.36
Cc1ccc(N(Cc2ccc(-c3nnc(C(F)(F)F)o3)cc2F)S(C)(=O)=O)cc1 [Compound 11282, N-(2-fluoro-4-(5-(trifluoromethyl)-1,3,4-oxadiazol-2-yl)benzyl)-N-(p-tolyl)methanesulfonamide] | 781 fold | 6.89
Cc1ccc(N(Cc2ccc(-c3nnc(C(F)F)o3)cc2F)S(C)(=O)=O)cc1 [Compound 11283, N-(4-(5-(difluoromethyl)-1,3,4-oxadiazol-2-yl)-2-fluorobenzyl)-N-(p-tolyl)methanesulfonamide] | 1852 fold | 7.27
CS(=O)(=O)N(Cc1ccc(-c2nnc(C(F)F)o2)cc1F)c1cncc(F)c1 [Compound 11284, N-(4-(5-(difluoromethyl)-1,3,4-oxadiazol-2-yl)-2-fluorobenzyl)-N-(5-fluoropyridin-3-yl)methanesulfonamide] | 3704 fold | 7.57
COC(=O)CCS(=O)(=O)N(Cc1ccc(-c2nnc(C(F)F)o2)cc1F)c1ccccc1 [Compound 11287, methyl 3-(N-(4-(5-(difluoromethyl)-1,3,4-oxadiazol-2-yl)-2-fluorobenzyl)-N-phenylsulfamoyl)propanoate] | 3448 fold | 7.54
COCC(C)CS(=O)(=O)N(Cc1ccc(-c2nnc(C(F)F)o2)cc1F)c1ccccc1 (stereo not drawn) [Compound 11288] | 2128 fold | 7.33
CCCS(=O)(=O)N(Cc1ccc(-c2nnc(C(F)F)o2)cc1F)c1ccccc1 [Compound 11289, N-(4-(5-(difluoromethyl)-1,3,4-oxadiazol-2-yl)-2-fluorobenzyl)-N-phenylpropane-1-sulfonamide] | 3571 fold | 7.55
CCCCS(=O)(=O)N(Cc1ccc(-c2nnc(C(F)F)o2)cc1F)c1ccccc1 [Compound 11290, N-(4-(5-(difluoromethyl)-1,3,4-oxadiazol-2-yl)-2-fluorobenzyl)-N-phenylbutane-1-sulfonamide] | 2041 fold | 7.31
O=S(=O)(C1CC1)N(Cc1ccc(-c2nnc(C(F)F)o2)cc1F)c1ccccc1 [Compound 11291, N-(4-(5-(difluoromethyl)-1,3,4-oxadiazol-2-yl)-2-fluorobenzyl)-N-phenylcyclopropanesulfonamide] | 3226 fold | 7.51
CS(=O)(=O)N(Cc1ccc(-c2nnc(C(F)F)o2)cc1F)C1CCCCC1 [Compound 11292, N-cyclohexyl-N-(4-(5-(difluoromethyl)-1,3,4-oxadiazol-2-yl)-2-fluorobenzyl)methanesulfonamide] | 1786 fold | 7.25
